{"source": "patent US12208093B2", "about": "(THE JOHNS HOPKINS UNIVERSITY, priority 2016, dated 2025)", "key": {"[1]": {"test_system": "pp28-luciferase HCMV Towne", "assay": "microbe, parasite or virus in culture", "type": "cell-based, human cytomegalovirus (HCMV)", "settings": "HFFs 0.5-2 million cells/plate; emetine 75 nM, GCV 5 μM", "text": "A GCV-resistant pp28-luciferase HCMV strain, with a C607Y mutation in UL97 was also used. The recombinant viruses express luciferase under the control of the late CMV gene promoter, pp28. […] The recombinant viruses provide a highly-sensitive and reproducible reporter system which correlates with the classic plaque reduction assay. […] Human herpes virus strains were: luciferase HSV1-KOS/Dlux/oriS and clinical isolates of HSV2.\nCell culture, virus infection and anti-viral assays. […] Infection with HCMV or HSV was performed in HFFs, and infection with mouse CMV was performed in MEFs. For HCMV, cells were seeded in either a 96-well plate or 100 mm culture plates (Corning Costar, Sigma Aldrich) at 0.5 or 2 million cells/plate. Following 90 minute adsorption, media was removed and cells were washed with PBS. Media containing 4% FBS and compounds were added to each well. Infected treated HFFs were collected at 72 hpi and lysates were assayed for luciferase activity using a luciferase assay kit (Promega, Madison, WI) on GloMax®-Multi+Detection System (Promega). In second cycle assays, supernatants were collected from all conditions of the first cycle at 96 hpi and used for infection of fresh HFFs in 96-well-plates. […] For HSV1-KOS/Dlux/oriS, a luciferase assay was performed at 24 hpi. Plaque assays were performed with clinical isolates of HSV2 and HCMV Towne. […] Following virus adsorption (60 min and 90 min for HSV and HCMV, respectively), virus was aspirated, and DMEM containing 4% fetal bovine serum (FBS) with (for HSV) or without (for HCMV) 0.5% carboxymethyl-cellulose, were added with the compounds at indicated concentrations into triplicate wells. After incubation at 37° C. for 10 days (for HCMV) or 2 days (for HSV), the overlay was removed and plaques were counted after crystal violet staining."}, "HCMV entry": {"test_system": "HCMV entry", "assay": "Virus entry immunofluorescence assay for pp65", "type": "cell-based", "settings": "emetine 75 nM, GCV 10 μM, CpG 2006 10 μM; added 24 h prior to infection", "description": "Immunofluorescence. […] Compounds were diluted in serum-free medium and added to HFFs seeded on chamber slides 24 h prior to infection. After infection and treatment, cells were fixed, permeabilized, and air-dried. Cells were then incubated with mouse monoclonal anti-pp65 antibody at 37° C. in humidified chambers for 1 h, washed three times with 0.1% Tween 20 in PBS (PBST), incubated with rhodamine conjugated anti-mouse IgG (Sigma Chemical Co) at 37° C. in humidified chambers for 1 h, and washed with PBST (0.1% Tween 20). A drop of mount oil containing DAPI (4,6-diamidino-2-phenylindole) (Santa Cruz) was added to the slides before visualization with a Nikon Eclipse E-800 fluorescence microscope."}, "MDM2-IE2 interaction": {"test_system": "MDM2-IE2 interaction", "assay": "Co-immunoprecipitation of MDM2 and IE2 in transfected HEK293 cells", "type": "cell-based", "settings": "HEK293 cells transfected with IE1/2; emetine 75 nM or GCV 5 μM, 4 h", "description": "Transient transfections. HEK-293 cells seeded into 10 cm petri dishes were transfected with HCMV plasmid encoding IE1 and IE2 (pRL45) plasmid, 1 μg/dish, using Lipofectamine 2000 in serum free medium. After 6 h, 10% FBS containing media was added along with 10 μM of MG132. […] Cells were then harvested to prepare lysates for IP.\nCo-immunoprecipitation (IP) and immunoblotting. Non-infected, infected or emetine-treated HFFs were treated with MG132 (10 μM) for 12 h. Cells were harvested after 24 hpi and lysed with IP buffer containing 150 mM NaCl, 50 mM Tris pH 7.5, 2 mM EDTA, 0.5% TritonX-100 and 0.5% NP-40-40. 1 mg of lysate was precleared with bead slurry for 30 min. The precleared lysates were incubated with anti-MDM2 (2 μg) antibody overnight. The antibody complexes were isolated using protein A/G beads (Santa Cruz), washed three times with 50% IP buffer. The immunoprecipitate—protein A/G beads were boiled in SDS sample buffer, and the supernatant was analyzed on SDS-PAGE gels after immunoblotting as described previously. […] Reverse IPs were performed by pulling down the precleared lysates with either anti-p53 antibody or anti-RPS14 antibody and detected with MDM2. […] In other experiments, transfected or treated HEK293 cell lysates were pulled-down with anti-IE2 antibody and detected with anti-MDM2 antibody and vice-versa for reverse IP."}, "HCMV": {"test_system": "HCMV", "assay": "Generation of drug resistant virus", "type": "cell-based, human cytomegalovirus (HCMV)", "settings": "5 passages, two fold increases of concentration", "experimental": "Generation of drug resistant virus. Screening of drug resistant virus was performed as reported. Two million cells were plated on a 6-well plate and infected with HCMV (MOI 0.05). […] The cells were maintained in DMEM with 4% FBS until plaques were observed. The supernatants from these plates were used to infect fresh HFFs in a 6-well plate and each time drug concentration was increased by two fold. […] DNA extracted from supernatants collected at the last stage was used for UL97 sequencing."}}}
{"compound": "Nc1nc(O)c2ncn(COC(CO)CO)c2n1", "note": "[GCV, Ganciclovir]", "values": [{"measurement": "HCMV inhibition in relation to cell density at time of infection", "setting": "[1]", "result": "inhibited HCMV replication irrespective of cell density"}, {"measurement": "inhibition of viral entry", "setting": "HCMV entry", "result": "neither emetine nor GCV inhibited viral entry"}, {"measurement": "interaction of MDM2 and IE2", "setting": "MDM2-IE2 interaction", "result": "no effect"}, {"measurement": "selection of resistant virus with increasing drug concentration", "setting": "HCMV", "result": "did select for resistant mutants"}]}
